Measurements taken from patent US20190343953A1, “ANTI-CANCER TREATMENTS WITH AN ANTI-MUC1 ANTIBODY AND AN ERBB INHIBITOR” (Glycotope GmbH, priority 2017, published 2019).

Test system: cancer cells
Test: Cytotoxicity assay of SeeloMab (PankoMab-ADC), statements for the cancer cells in general
Assay type: cell-based, human
Conditions: pretreated for 3 days vs non-pretreated
Protocol: The cytotoxic potential of a TA-MUC1 targeting antibody drug conjugate (ADC) was investigated using SeeloMab, the ADC format of PankoMab with a microtubule inhibitor as toxin. Therefore, cells were pre-incubated for 3 days with an optimum concentration of EGFR inhibitor. […] After 3 days the antigen expression was confirmed by flow cytometry and cells were seeded at equal cell density (5000 cells/well) into the wells of a microtiter plate. Cells were incubated with different concentrations of SeeloMab, an isotype matched control ADC and unconjugated PankoMab served as negative control. After 4 days viability of the cells was measured using Celltiter-Glo Luminescent Cell Viability Assay (Promega) and percent proliferation was calculated relative to medium control.

Question: `C#Cc1cccc(Nc2ncnc3cc(OCCOC)c(OCCOC)cc23)c1` [Erlotinib] was tested. Which “reduction of proliferation by anti-TA-MUC1 ADC when cancer cells were pretreated with EGFR inhibitor” value did it give?
Answer: significantly stronger
